These results are taken from publication PMC6934184, “Selective DNA-PKcs inhibition extends the therapeutic index of localized radiotherapy and chemotherapy” (The Journal of Clinical Investigation, 2019).

The experiment has as its target T1, PDK1 (Homo sapiens, UniProt O15530).
T1 construct: purchased Thermo Fisher Scientific (Life Technologies) SelectScreen
The experiment is described as follows: SelectScreen Z'LYTE. Format: biochemical. Put shortly:
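NU5455 was profiled across the SelectScreen Broad panel of kinase activity and binding assays. Z'LYTE reactions such as CSF1R ran at apparent Km ATP, while the Adapta CAMK1 assay used ATP listed as 10. Values are given as percent.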

T1 sequence (O15530 whole entry): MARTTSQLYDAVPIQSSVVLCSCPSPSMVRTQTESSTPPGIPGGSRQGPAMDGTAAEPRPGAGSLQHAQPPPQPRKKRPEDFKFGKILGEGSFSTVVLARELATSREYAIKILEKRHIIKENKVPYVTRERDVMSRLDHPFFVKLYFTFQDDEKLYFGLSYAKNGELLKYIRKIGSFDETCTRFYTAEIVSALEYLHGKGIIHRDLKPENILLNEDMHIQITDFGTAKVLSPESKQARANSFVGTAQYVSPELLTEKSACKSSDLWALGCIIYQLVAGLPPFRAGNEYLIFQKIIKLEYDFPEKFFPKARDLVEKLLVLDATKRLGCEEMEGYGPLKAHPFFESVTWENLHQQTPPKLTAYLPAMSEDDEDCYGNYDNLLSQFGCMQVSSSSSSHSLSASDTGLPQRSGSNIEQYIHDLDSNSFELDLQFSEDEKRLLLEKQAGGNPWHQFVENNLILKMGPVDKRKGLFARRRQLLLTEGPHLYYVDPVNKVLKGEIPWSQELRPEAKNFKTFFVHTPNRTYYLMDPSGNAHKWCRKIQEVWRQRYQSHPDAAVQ

As usually defined, the inhibition is the relative decrease from the control value, in per cent. `CN(C(=O)CN1CCOCC1)c1ccc2sc3c(-c4cccc5c(=O)cc(N6CC7CCC(C6)O7)oc45)cccc3c2c1` [NU5455]: the inhibition at 1 µM was -7.3%.
